Counter-ions that a name gives are not always drawn.
Experiments:
[1] = tested on: acetic acid-induced writhing in ddy mice; assay: animal or person; type: in vivo, 5 week old ddy mice; settings: Mus musculus, sc, s.c. 15 minutes before acetic acid, read-out: ED50
Protocol: 5 week old ddy mice were used in this test. After intraperitoneal administration of 0.1 ml of 0.6% aqueous acetic acid per 10 g of body weight, the number of writhing reactions that occurred in 10 minutes starting 10 minutes after administration was evaluated for the indicator. The test drug was administered subcutaneously into the backs of the animals 15 minutes before administration of acetic acid.

[2] = tested on: cultured nerve cells (cerebral cortex); settings: 10 mM glutamic acid, 24 hours
[3] = tested on: nerve cells in the region of the hippocampus CA1; assay: Delayed neuronal death protective action (gerbil transient ischemia model, hippocampus CA1 nerve cell count); type: in vivo, gerbils; settings: s.c.; for No. of Residual Nerve Cells: 30 minutes before ischemia, 1 week after ligation; for Suppression of defluxion of brain nerve cells caused by ischemia / cerebro-neuroprotective activity (in words): gerbils
Protocol: Those compounds that provide protection from and suppress delayed neuronal death described in Example 238 are considered to be promising as preventive and therapeutic agents for ischemic brain disorders, brain nerve cell disorders and dementia, which are problems that the present invention is attempting to solve. The pharmacological activity of the compounds of the present invention was evaluated in the manner below using gerbils for the animal model.
A midline incision was made in gerbils having body weights of 50-70 g under ether anesthesia. Blood flow through the carotid arteries on both sides was interrupted to create an ischemic state by ligating the vessels for 5 minutes. The test compound was administered subcutaneously either 30 minutes or 1 hour prior to ligation ischemia, and the rectal temperature of the animals was controlled to 37±2° C. using a heating pad or heater starting 5 minutes before to 30 minutes after ligation ischemia. 1 week after ligation, 4% neutral buffered formalin was perfused from the heart throughout the body followed by extraction of the brain. After post-fixing the extracted brain in the same solution, the tissue was prepared into sections after embedding in paraffin. The sections were stained with hematoxylin and eosin stain, and the number of nerve cells in the region of the hippocampus CA1 over a width of 1 mm to the left and right was counted. The total number of nerve cells on the right and left sides was then used for evaluation.

[4] = tested on: cultured nerve cells (cerebral cortex); assay: cells; settings: Rattus norvegicus, Cerebral cortex neuron, 24 h, read-out: ED50 (protection against glutamic acid toxicity)
[5] = tested on: guinea pig respiratory tract; assay: Antitussive action using the guinea pig respiratory tract stimulation method; type: in vivo, male Hartley guinea pigs; settings: Cavia porcellus, sc
Protocol: Evaluation of Antitussive Action Using the Guinea Pig Respiratory Tract Stimulation Method
Male Hartley guinea pigs having body weights of 330-380 g were used in this test in groups of 5 animals each. The animals were immobilized in the supine position under mild anesthesia by intraperitoneal administration of 15 mg/kg of sodium pentobarbital. An incision was made in the necks of the animals to expose the respiratory tract. A small hole was opened in the exposed respiratory tract, and stimulating hairs were inserted to a depth of roughly 3 cm and at an angle of 30 degrees to the respiratory tract through the opened hole to provide a stimulus to the inner wall of the respiratory tract. The animals were then examined for the presence of coughing. […] The test drug was administered subcutaneously, and stimuli were provided two times each 15, 30, 60 and 120 minutes after administration.

[6] = Diuretic action (urine output for 5 hours after physiological saline loading in rats); type: in vivo, male Wistar rats; settings: Rattus norvegicus, sc, 5 hours after saline 20 ml/kg p.o.; for ED (200% urine output): dose giving urine output of 200 (non-dosed group = 100); for ED (500% urine output): dose giving urine output of 500 (non-dosed group = 100)
Procedure, shortened: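 Male Wistar rats (7-8 weeks), water withheld 1 h, bladder emptied, drug given subcutaneously; 30 min later 20 ml/kg saline orally. Urine collected 5 h after saline loading in metabolic cages; ED200 and ED500 are doses giving urine output of 200 and 500 relative to non-dosed group at 100.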

[7] = tested on: extracted mouse vas deferens preparation; assay: Opioid activity test using an extracted mouse vas deferens preparation (suppression of electrically induced contractions); design: species or system male ddy mouse; settings: electrical stimulus 0.1 Hz, 37° C.
Procedure, shortened: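 Male ddY mouse vas deferens in Krebs-Henseleit at 37° C, 5% CO2/95% O2, field-stimulated at 0.1 Hz, 5.0 ms; isometric contractions recorded. After adding naloxone, NTI or norBNI, test compound was added cumulatively after ~20 min; Ke derived from the difference in agonist efficacies.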

κ receptor = biological target: T1, κ receptor (Mus musculus, UniProt P33534); assay: Opioid activity test using an extracted mouse vas deferens preparation, Ke with norBNI; design: species or system male ddy mouse; settings: for Ke, norBNI: κ, norBNI added; for receptor selectivity of agonist (κ): in words
T1 construct: from tissue; host or cells: mouse (male ddy) vas deferens
T1 sequence (P33534 whole entry): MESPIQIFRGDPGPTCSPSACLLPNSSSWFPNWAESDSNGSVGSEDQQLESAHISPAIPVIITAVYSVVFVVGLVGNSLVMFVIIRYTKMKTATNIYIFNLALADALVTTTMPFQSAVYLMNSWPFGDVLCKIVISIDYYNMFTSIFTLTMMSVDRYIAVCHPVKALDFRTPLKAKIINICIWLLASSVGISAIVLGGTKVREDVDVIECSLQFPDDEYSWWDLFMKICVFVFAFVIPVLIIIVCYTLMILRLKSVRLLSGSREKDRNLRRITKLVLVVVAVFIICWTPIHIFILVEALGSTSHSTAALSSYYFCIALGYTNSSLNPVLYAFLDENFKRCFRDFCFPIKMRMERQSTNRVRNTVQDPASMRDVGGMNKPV

δ receptor = biological target: T2, δ receptor (Mus musculus, UniProt P32300); design: species or system male ddy mouse; settings: for Ke, NTI: mouse vas deferens, δ, NTI added
T2 construct: The vas deferens extracted from the animal was suspended in a Magnus tube; from tissue; host or cells: mouse (male ddy) vas deferens
T2 sequence (P32300 whole entry): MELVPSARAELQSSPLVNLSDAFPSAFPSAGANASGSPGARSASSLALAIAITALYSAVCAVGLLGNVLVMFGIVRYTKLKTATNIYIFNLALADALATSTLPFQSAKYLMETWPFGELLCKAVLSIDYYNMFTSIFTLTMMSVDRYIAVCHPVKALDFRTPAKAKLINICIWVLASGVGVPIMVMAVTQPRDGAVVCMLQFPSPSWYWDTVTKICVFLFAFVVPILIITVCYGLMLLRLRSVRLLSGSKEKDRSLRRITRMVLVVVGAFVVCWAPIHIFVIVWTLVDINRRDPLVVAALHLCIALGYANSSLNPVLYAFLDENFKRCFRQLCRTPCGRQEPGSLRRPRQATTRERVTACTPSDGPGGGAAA

μ receptor = biological target: T3, μ receptor (Mus musculus, UniProt P42866); assay: Opioid activity test using an extracted mouse vas deferens preparation, Ke with naloxone; design: species or system male ddy mouse; settings: naloxone added
T3 construct: naloxone as mu antagonist (printed 'agonist')
T3 sequence (P42866 whole entry): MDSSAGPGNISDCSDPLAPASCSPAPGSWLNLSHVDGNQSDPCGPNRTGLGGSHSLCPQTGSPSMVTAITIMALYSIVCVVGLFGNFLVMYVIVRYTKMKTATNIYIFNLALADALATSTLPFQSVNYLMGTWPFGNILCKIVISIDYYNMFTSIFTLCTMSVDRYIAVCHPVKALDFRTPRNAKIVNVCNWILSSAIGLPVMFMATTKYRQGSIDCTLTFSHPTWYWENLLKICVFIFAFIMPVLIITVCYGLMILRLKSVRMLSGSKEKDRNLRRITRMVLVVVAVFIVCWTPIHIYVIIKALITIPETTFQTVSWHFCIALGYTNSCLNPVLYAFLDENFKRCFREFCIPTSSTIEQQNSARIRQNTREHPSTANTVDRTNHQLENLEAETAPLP

| Compound | ED50 [1] [µg/kg] | Protective action against cytotoxicity caused by glutamic acid (in words) [2] | No. of Residual Nerve Cells ([3]; 0.03 mg/kg) | No. of Residual Nerve Cells ([3]; 0.3 mg/kg) | No. of Residual Nerve Cells ([3]; 3 mg/kg) | Suppression of defluxion of brain nerve cells caused by ischemia / cerebro-neuroprotective activity (in words) [3] | EC50 [4] [nM] | ED50 [5] [µg/kg] | ED (200% urine output) [6] [µg/kg] | ED (500% urine output) [6] [mg/kg] | IC50 [7] [nM] | Ke, norBNI (κ receptor) [nM] | Ke, NTI (δ receptor) [nM] | Ke, Naloxone (μ receptor) [nM] | receptor selectivity of agonist (κ) (κ receptor) | receptor selectivity of agonist (δ) (δ receptor) |
| --- | --- | --- | --- | --- | --- | --- | --- | --- | --- | --- | --- | --- | --- | --- | --- | --- |
| CN(C(=O)CCCCCc1ccccc1)[C@H]1CC[C@@]2(O)[C@H]3Cc4ccc(O)c5c4[C@@]2(CCN3CC2CC2)[C@H]1O5 [Compound 36, 17-cyclopropylmethyl-3,14β-dihydroxy-4,5α-epoxy-6α-(N-methyl-6-phenylhexanamido)morphinan.cndot.hydrochloride] | 230 | clearly demonstrated action that protects nerve cells from cytotoxicity caused by glutamic acid | 38.8 ± 19.6 | 85.5 ± 34.9 | 68.0 ± 45.3 | significantly suppress defluxion of brain nerve cells caused by ischemia | 230 |  |  |  |  |  |  |  |  |  |
| CC(C)CN(C(=O)Cc1ccc(Cl)c(Cl)c1)[C@H]1CC[C@@]2(O)[C@H]3Cc4ccc(O)c5c4[C@@]2(CCN3CC2CC2)[C@H]1O5 [Compound 51, 17-cyclopropylmethyl-4,5α-epoxy-3,14β-dihydroxy-6α-(N-isobutyl-3,4-dichlorophenylacetoamido)morphinan.cndot.hydrochloride] | 190 | clearly demonstrated action that protects nerve cells from cytotoxicity caused by glutamic acid | 17.8 ± 6.9 | 46.4 ± 15.1 | 203.8 ± 40.1 | significantly suppress defluxion of brain nerve cells caused by ischemia | 30 |  |  |  |  |  |  |  |  |  |
| CN(C(=O)/C=C/c1ccoc1)[C@@H]1CC[C@@]2(O)[C@H]3Cc4ccc(O)c5c4[C@@]2(CCN3CC2CC2)[C@H]1O5 [Compound 61, 17-cyclopropylmethyl-3,14β-dihydroxy-4,5α-epoxy-6β-[N-methyl-trans-3-(3-furyl)acrylamido]morphinan.cndot.tartrate] | 4.4 | clearly demonstrated action that protects nerve cells from cytotoxicity caused by glutamic acid |  |  |  |  | 16300 | 3.7 | 3.2 | 0.157 | 0.42 | 0.164 |  |  |  |  |
| CN(C(=O)/C=C/C1CCCCC1)[C@@H]1CC[C@@]2(O)[C@H]3Cc4ccc(O)c5c4[C@@]2(CCN3CC2CC2)[C@H]1O5 [Compound 68, 17-cyclopropylmethyl-3,14β-dihydroxy-4,5α-epoxy-6β-(N-methyl-3-cyclohexylacrylamido)morphinan.cndot.tartrate] | 4.2 | clearly demonstrated action that protects nerve cells from cytotoxicity caused by glutamic acid |  |  |  |  | 1410 |  | 1.6 | 0.0232 | 0.457 | 1.08 | 143 | 5710 | selective agonists for κ receptors |  |
| CN(C(=O)C#Cc1ccccc1)[C@H]1CC[C@@]2(O)[C@H]3Cc4ccc(O)c5c4[C@@]2(CCN3CC2CC2)[C@H]1O5 [Compound 84, 17-cyclopropylmethyl-3,14β-dihydroxy-4,5α-epoxy-6α-(N-methyl-3-phenylpropiolamido)morphinan.cndot.hydrochloride] | 5.8 | clearly demonstrated action that protects nerve cells from cytotoxicity caused by glutamic acid |  |  |  |  | 2700 |  | 2.8 | 0.0469 | 2.07 | 5.69 | 0.309 | 35.4 |  | selective agonists for δ receptors |
| CN(C(=O)C#Cc1ccccc1)[C@@H]1CC[C@@]2(O)[C@H]3Cc4ccc(O)c5c4[C@@]2(CCN3CC2CC2)[C@H]1O5 [Compound 101, 17-cyclopropylmethyl-3,14β-dihydroxy-4,5α-epoxy-6β-(N-methyl-3-phenylpropiolamido)morphinan.cndot.hydrochloride] | 6.6 | clearly demonstrated action that protects nerve cells from cytotoxicity caused by glutamic acid |  |  |  |  | 12200 |  | 8.9 | 0.226 | 0.269 | 0.0425 | 31.6 | 25.4 | selective agonists for κ receptors |  |
| CN(C(=O)/C=C/c1cccc([N+](=O)[O-])c1)[C@@H]1CC[C@@]2(O)[C@H]3Cc4ccc(O)c5c4[C@@]2(CCN3CC2CC2)[C@H]1O5 [Compound 104, 17-cyclopropylmethyl-3,14β-dihydroxy-4,5α-epoxy-6β-(N-methyl-3-nitrocinnamamido)morphinan.cndot.tartrate] | 17 | clearly demonstrated action that protects nerve cells from cytotoxicity caused by glutamic acid | 12.0 ± 3.0 | 14.8 ± 1.2 | 106.2 ± 65.6 | significantly suppress defluxion of brain nerve cells caused by ischemia | 5450 |  |  |  | 0.227 | 1.40 | 89 | 185 | selective agonists for κ receptors |  |

Reference: patent publication US6177438A, “Morphinan derivatives and pharmaceutical use thereof” (priority 1993, dated 2001)
